Patent publication US20040063681A1, “Methods for using gold (III) complexes as anti-tumor and anti-HIV agents” (priority 2002, published 2004)

Tests used:
plasmid DNA (pDR2) = test: Restriction endonuclease (ApaI) fragmentation assay; details: comparison compounds, lanes F and H of FIG. 8
Source text: Binding of the metalloporphyrin onto a duplex DNA such as plasmid DNA (pDR2) is expected to occupy the binding site of the restriction enzyme ApaI, thereby inhibiting the enzymatic DNA digestion. See Ikeda et al., J. Am. Chem. Soc. 104:296-297 (1982).
After ApaI digestion, (lane B), three bands corresponding to 6.6, 4.4 and 2.0 kbp were observed.

calf thymus DNA = test: Viscosity evaluation of DNA; details: (η/ηo)^1/3 vs binding ratio r
Source text: Viscosity evaluation. The binding interaction of the gold(III) porphyrins can be further investigated by examining the change of DNA viscosity upon binding of the metalloporphyrin. If the metalloporphyrin binds to DNA by intercalation, this would cause chain elongation, unwinding and stiffening of the DNA helix as a consequence of untwisting of the base pairs and helical backbone needed to accommodate the intercalator.
For comparison, the viscosity profiles for ethidium bromide (intercalator) and Hoechst 33342 (minor groove binder) are also shown is FIG. 10.

For `CCOc1ccc(-c2nc3ccc(-c4nc5ccc(N6CCN(C)CC6)cc5[nH]4)cc3[nH]2)cc1` [Hoechst 33342, reference compound], the “effect on ApaI digestion of pDR2” value (plasmid DNA (pDR2)) was “complete inhibition of the DNA digestion” and the “change in viscosity of the DNA” value (calf thymus DNA) was “no appreciable change in viscosity of the DNA”.
